# Values of other authors in patent US20150119339A1, “USE OF HMB TO IMPROVE HEALTH OUTCOMES FOR HOSPITALIZED PATIENTS” (ABBOTT LABORATORIES, priority 2012, published 2015).
# Conditions: three grams of HMB; older (70±1 yr) men and women; 10 days voluntary bed rest; not statistically different
smiles,measurement,value
"CC(C)(O)CC(=O)O [HMB, 3-hydroxy-3-methylbutanoic acid]",loss of lean body mass,less loss of lean body mass
